Tests used:
WT mice, dural IL-6 = test: Dural IL-6-induced acute facial hypersensitivity and grimace in mice; format: in vivo, mouse; details: female and male WT mice; 10 mg/kg oral gavage prior to dural IL-6 (0.1 ng); compared to the vehicle group
Text: Female and male MNK1 KO mice were a gift of the Sonenberg laboratory at McGill University and bred at the University of Texas at Dallas (UTD) to generate experimental animals (Ueda T, et al., MNK2 and MNK1 are essential for constitutive and inducible phosphorylation of eukaryotic initiation factor 4E but not for cell growth or development. Mol Cell Biol. August 2004). Genotype was confirmed at weaning using DNA from ear clips. Experimental C57BL6/J wild-type (WT) animals were obtained from an internally maintained C57BL/6 J colony at the University of Texas at Dallas. For pharmacological studies, female and male ICR (CD-1) mice aged 6-8 weeks (˜25-30 g) were outbred and purchased from Envigo. All mice were housed in groups of four animals per cage on a 12-hour light-dark cycle and had access to food and water ad libitum. Upon arrival to the animal care facility, animals were allowed a minimum of 72 hours to acclimate to their new environment before being handled for experiments. All experiments were performed between the hours of 9:00 AM and 5:00 PM. All procedures were conducted with prior approval of the Institutional Animal Care and Use Committee at the University of Texas at Dallas.
For dural injections, human recombinant interleukin-6 (IL-6) protein (R&D Systems) stock solution ([…]) was prepared in sterile 0.1% BSA and diluted to 1 ng/ml in synthetic interstitial fluid (SIF) consisting of 135 mM NaCl, 5 mM KCl, 10 mM HEPES, 2 mM CaCl2), 10 mM glucose, 1 mM MgCl2 (pH 7.4, 310 mOsm). Sodium nitroprusside (SNP) (Sigma-Aldrich) was prepared fresh in sterile phosphate buffered saline (PBS) at the time of use and was kept away from light. To test for the presence of hyperalgesic priming, mice were given a 150 μL IP injection of 0.1 mg/kg of SNP or a 5 μL dural injection of SIF solution that was brought to a pH of 7.0, as previously described (Avona A., et al., Repetitive stress in mice causes migraine-like behaviors and CGRP-dependent hyperalgesic priming to a migraine trigger. Pain. (2020); Burgos-Vega C. C. et al., Non-invasive dural stimulation in mice: A novel preclinical model of migraine. Cephalalgia. (2019)). […] MNK inhibitors were given orally to WT mice at 10 mg/kg approximately 1 hr prior to dural IL-6 or dural pH 7.0.
Mouse dural injections were performed as previously described (Burgos-Vega C. C. et al., Non-invasive dural stimulation in mice: A novel preclinical model of migraine. Cephalalgia. (2019)). Mice were anesthetized under isoflurane for <2 min with <2.5-3% isoflurane via a chamber and given a 5 μL injection via a modified internal cannula (Invivo1, part #8IC313ISPCXC, Internal Cannula, standard, 28 gauge, fit to 0.5 mm). […]

[1] = biological target: recombinant human kinase, MNK1 (Homo sapiens, UniProt Q9BUB5); test: MNK1 substrate phosphorylation assay; format: biochemical
Sequence of recombinant human kinase, MNK1 (Q9BUB5 whole entry): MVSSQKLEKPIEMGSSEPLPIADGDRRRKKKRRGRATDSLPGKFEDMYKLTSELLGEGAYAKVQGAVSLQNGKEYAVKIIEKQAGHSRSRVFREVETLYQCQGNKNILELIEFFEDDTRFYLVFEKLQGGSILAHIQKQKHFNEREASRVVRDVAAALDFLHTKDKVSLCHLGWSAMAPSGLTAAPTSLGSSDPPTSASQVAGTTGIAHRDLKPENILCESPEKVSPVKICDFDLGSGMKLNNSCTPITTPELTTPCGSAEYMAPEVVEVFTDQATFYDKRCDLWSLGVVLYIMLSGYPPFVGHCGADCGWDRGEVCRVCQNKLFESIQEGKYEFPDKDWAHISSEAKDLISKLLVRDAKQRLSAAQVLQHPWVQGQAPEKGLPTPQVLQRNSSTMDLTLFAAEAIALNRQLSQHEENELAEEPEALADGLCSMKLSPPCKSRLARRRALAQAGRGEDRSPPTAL

[2] = biological target: recombinant human kinase, MNK2 (Homo sapiens, UniProt Q9HBH9); test: MNK2 substrate phosphorylation assay; format: biochemical
Sequence of recombinant human kinase, MNK2 (Q9HBH9 whole entry): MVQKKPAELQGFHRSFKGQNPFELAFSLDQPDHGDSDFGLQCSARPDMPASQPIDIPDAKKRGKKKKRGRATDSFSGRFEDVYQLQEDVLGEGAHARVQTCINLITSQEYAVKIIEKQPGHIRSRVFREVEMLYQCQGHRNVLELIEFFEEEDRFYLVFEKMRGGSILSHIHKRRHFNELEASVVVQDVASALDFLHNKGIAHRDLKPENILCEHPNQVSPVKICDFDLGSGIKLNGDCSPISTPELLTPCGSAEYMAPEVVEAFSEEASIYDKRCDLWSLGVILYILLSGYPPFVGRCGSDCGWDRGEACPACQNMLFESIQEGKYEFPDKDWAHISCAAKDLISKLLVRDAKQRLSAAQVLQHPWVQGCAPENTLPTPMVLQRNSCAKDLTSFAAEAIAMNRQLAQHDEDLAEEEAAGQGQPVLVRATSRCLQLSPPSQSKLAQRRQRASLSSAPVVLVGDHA

[3] = system: eIF4E phosphorylation at Serine 209 in the human embryonic kidney (HEK) 293 cell line; test: Inhibition of eIF4E phosphorylation in HEK293 cells (phospho-specific antibody, fluorescent plate reader); format: cell-based; details: HEK293, 2 h, eIF4E phosphorylation at Serine 209, HEK293 cells, 2 hours exposure
Experimental: The ability of MNK inhibitors described herein to inhibit eIF4E phosphorylation at Serine 209 in the human embryonic kidney (HEK) 293 cell line was tested by exposing the cells to compound for 2 hours and then measuring eIF4E phosphorylation with a phosphorylation-specific antibody in a fluorescent plate reader. These experiments were done with HEK-293 cells plated on 96 well plates. Following treatment, cells were fixed with ice cold methanol for 10 min and then washed in 1× phosphate buffered saline (PBS) and the permeabilized with 0.02% Triton X-100 in 10% normal goat serum made up in PBS. Primary antibody was applied overnight at a concentration dilution of 1:2000 (p-eIF4E antibody from Cell Signaling ab76256). Following washing, cells were then exposed to secondary antibody conjugated to alexa-fluor 488 and then visualized on a Syngergy HTX plate reader. Fluorescence for p-eIF4E was measured and normalized to total DAPI fluorescence to determine the percentage of eIF4E phosphorylation in each well. Data were plotted in Graphpad Prism V8 to determine concentration-response effects and calculate IC50 values.

[4] = system: WT mice, dural pH 7.0 after dural IL-6; test: Hyperalgesic priming to dural pH 7.0 after dural IL-6 in mice; format: in vivo, mouse; details: female and male WT mice
Text: Female and male MNK1 KO mice were a gift of the Sonenberg laboratory at McGill University and bred at the University of Texas at Dallas (UTD) to generate experimental animals (Ueda T, et al., MNK2 and MNK1 are essential for constitutive and inducible phosphorylation of eukaryotic initiation factor 4E but not for cell growth or development. Mol Cell Biol. August 2004). Genotype was confirmed at weaning using DNA from ear clips. Experimental C57BL6/J wild-type (WT) animals were obtained from an internally maintained C57BL/6 J colony at the University of Texas at Dallas. For pharmacological studies, female and male ICR (CD-1) mice aged 6-8 weeks (˜25-30 g) were outbred and purchased from Envigo. All mice were housed in groups of four animals per cage on a 12-hour light-dark cycle and had access to food and water ad libitum. Upon arrival to the animal care facility, animals were allowed a minimum of 72 hours to acclimate to their new environment before being handled for experiments. All experiments were performed between the hours of 9:00 AM and 5:00 PM. All procedures were conducted with prior approval of the Institutional Animal Care and Use Committee at the University of Texas at Dallas. […]

Row | IC50 [1] [nM] | IC50 [2] [nM] | SMILES | dural IL-6 induced facial grimace measures (grimace score) (WT mice, dural IL-6) | IC50 [3] [nM] | dural IL-6 induced facial hypersensitivity (periorbital von Frey) (WT mice, dural IL-6) | hyperalgesic priming to dural pH 7.0 ([4]; 10 mg/kg oral gavage prior to dural IL-6, later tested with dural SIF pH 7.0) | hyperalgesic priming to dural pH 7.0 ([4]; 10 mg/kg oral gavage prior to dural pH 7.0, compared to the vehicle group)
1 |  |  | Cc1cc(Nc2cc(N)ncn2)c(=O)n2c1C(=O)NC21CCCC2(CC2)CC1 (racemic) [rac-4ET-01-027, 6″-((6-aminopyrimidin-4-yl)amino)-8″-methyl-2″H-dispiro[cyclopropane-1,1′-CYCLOHEPTANE-4′,3″-imidazo[1,5-a]pyridine]-1″,5″-dione] | significantly attenuated |  |  |  | 
2 | 30.9 | 2.6 | Cc1cc(Nc2cc(N)ncn2)c(=O)n2c1C(=O)NC21CCC2(CCC2)C1 (stereo not drawn) [4ET-01-015] |  | 3.9 |  |  | 
3 | 36.8 | 1.86 | Nc1cc(Nc2cc(Cl)c3n(c2=O)C2(CCC4(CC4)CC2)NC3=O)ncn1 [4ET-04-023] | significantly attenuated | 1.2 |  |  | 
4 |  |  | Cc1cc(Nc2cc(N)ncn2)c(=O)n2c1C(=O)NC21CCCCC1 [eFT508, reference compound] | significantly attenuated |  | significantly attenuated | did not prime to dural pH 7.0 | did not prime to pH 7.0
